In this experiment the target is T1, PIK3CA (Homo sapiens, UniProt P42336).
T1 construct: endogenous in cells; host or cells: Jurkat cell lysate
Nature of the experiment: In vitro ELISA target engagement assay for PIK3CA in Jurkat cellular lysate (competition with PIK3CA Biotin Probe). It counts as binding. Conditions: 1 hour at rt, then 500 nM PIK3CA Biotin Probe, read-out: Elisa Target Engagement Assay (TE50). Here is the method: Example 3. In Vitro ELISA Target Engagement Assay for […] Engagement of compounds on PIK3CA were assessed in Jurkat cellular lysate via a sandwich ELISA. A solution of PIK3CA Biotin Probe was generated at 10 mM and used in the biological testing. […] Treatment Protocol: Jurkat cellular lysate was generated from frozen cell pellets. Cells were thawed on ice and resuspended in cold Dulbecco's phosphate buffered saline (DPBS) (12 mL/300 e^6 cells) then lysed by probe sonication (12×3 second pulses). Jurkat lysate was plated (50 μl/well) in Armadillo 96 well PCR plates (Thermo Fisher catalog number AB2396). The lysate was treated with serial dilutions of test compounds up to 200 μM and incubated for 1 hour at rt. Following compound incubation, PIK3CA Biotin Probe was added to a final concentration of 500 nM, and lysate was mixed by pipetting gently and incubated for an additional 1 hour at rt. The mixture was then diluted in 75 μL Dilution buffer. The mixture was centrifuged for 5 minutes at 4122 g and stored at −80° C. until ELISA TE detection. ELISA TE Detection: Quantification of PIK3CA TE was initiated by coating of the ELISA plate (Thermo Scientific White 384-Well Immuno plates; Thermo Fisher catalog number 460372). The capture antibody was diluted in plating buffer (1:83) and added to the ELISA plate, 20 μl/well, overnight at 4° C. The plate was then washed twice with PBST, 100 μl/well, and blocked with addition of blocking buffer (100 μl/well, 1 hour at rt). During block, treated and probe labeled lysate was thawed. After Block, the block buffer was removed and the thawed lysate was added to the ELISA plate, 30 μl/well, for 1.5 hours at rt. Following lysate incubation, the assay plate was washed 3 times with PBST, 100 μl/well. The Neutravidin-HRP was then diluted (1:500 in dilution buffer) and added for 1 hour at rt, 20 μl/well. Following incubation, the assay plate was washed 4 times with PBST, 100 μl/well, HRP substrate was added to plate, 20 μl/well and luminescence signal was read (Clariostar Plate Reader). For each compound the potency of target engagement (TE50) was determined using Graphpad Prism.

T1 sequence (P42336 whole entry): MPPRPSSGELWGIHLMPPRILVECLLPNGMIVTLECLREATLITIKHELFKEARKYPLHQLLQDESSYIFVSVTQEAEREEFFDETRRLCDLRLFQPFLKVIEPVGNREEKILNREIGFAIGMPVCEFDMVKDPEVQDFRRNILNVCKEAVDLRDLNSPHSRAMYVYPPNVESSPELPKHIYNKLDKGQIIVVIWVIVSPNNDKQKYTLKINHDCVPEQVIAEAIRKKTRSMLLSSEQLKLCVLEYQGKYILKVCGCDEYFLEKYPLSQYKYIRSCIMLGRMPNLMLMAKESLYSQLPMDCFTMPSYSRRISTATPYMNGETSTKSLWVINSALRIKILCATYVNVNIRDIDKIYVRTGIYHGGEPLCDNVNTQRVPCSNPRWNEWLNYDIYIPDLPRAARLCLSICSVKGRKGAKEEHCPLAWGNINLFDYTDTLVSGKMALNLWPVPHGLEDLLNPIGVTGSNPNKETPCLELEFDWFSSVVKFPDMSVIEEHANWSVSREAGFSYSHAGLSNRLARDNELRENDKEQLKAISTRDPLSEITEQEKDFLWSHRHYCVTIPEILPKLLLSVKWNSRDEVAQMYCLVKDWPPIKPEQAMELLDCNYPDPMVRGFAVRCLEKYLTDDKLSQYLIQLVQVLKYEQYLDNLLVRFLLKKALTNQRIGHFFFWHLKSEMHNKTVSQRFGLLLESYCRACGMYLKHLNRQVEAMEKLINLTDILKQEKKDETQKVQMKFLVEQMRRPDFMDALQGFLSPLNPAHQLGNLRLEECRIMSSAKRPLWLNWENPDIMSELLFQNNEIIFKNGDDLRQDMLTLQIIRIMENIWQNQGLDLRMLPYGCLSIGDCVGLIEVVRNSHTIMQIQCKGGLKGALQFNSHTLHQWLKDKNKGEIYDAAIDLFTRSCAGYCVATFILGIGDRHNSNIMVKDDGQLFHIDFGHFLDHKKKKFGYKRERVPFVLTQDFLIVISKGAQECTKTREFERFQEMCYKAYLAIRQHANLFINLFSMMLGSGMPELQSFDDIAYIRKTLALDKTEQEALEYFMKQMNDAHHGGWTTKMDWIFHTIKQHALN
T1 sequence (P27986 whole entry partner): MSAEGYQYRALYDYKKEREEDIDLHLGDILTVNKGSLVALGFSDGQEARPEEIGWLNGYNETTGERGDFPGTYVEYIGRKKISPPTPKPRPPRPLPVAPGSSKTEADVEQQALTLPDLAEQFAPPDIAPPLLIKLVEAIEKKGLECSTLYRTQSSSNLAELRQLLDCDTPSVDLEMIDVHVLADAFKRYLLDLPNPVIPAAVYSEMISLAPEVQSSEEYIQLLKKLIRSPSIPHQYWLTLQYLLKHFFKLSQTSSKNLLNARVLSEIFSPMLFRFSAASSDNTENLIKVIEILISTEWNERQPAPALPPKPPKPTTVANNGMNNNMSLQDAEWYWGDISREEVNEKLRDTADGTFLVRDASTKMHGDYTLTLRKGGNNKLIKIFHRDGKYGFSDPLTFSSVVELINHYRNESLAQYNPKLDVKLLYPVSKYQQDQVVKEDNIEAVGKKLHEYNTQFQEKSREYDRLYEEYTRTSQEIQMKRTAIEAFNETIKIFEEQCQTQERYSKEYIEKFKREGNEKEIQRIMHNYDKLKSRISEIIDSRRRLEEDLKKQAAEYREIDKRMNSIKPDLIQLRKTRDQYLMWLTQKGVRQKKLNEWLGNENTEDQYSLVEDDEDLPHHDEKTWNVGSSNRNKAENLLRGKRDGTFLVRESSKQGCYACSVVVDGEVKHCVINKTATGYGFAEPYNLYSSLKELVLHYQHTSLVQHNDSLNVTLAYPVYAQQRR

For the molecule `C[C@@H](/C=C\C(=O)N1CC(F)(F)C1)NC(=O)C1(F)CCN(S(=O)(=O)c2ccc(Br)cc2-c2ccccc2Cl)CC1` [Compound 287, (S,Z)-1-((5-bromo-2′-chloro-[1,1′-biphenyl]-2-yl)sulfonyl)-N-(5-(3,3-difluoroazetidin-1-yl)-5-oxopent-3-en-2-yl)-4-fluoropiperidine-4-carboxamide], the IC50 was found to be 830 nM.
With `C[C@H](/C=C\S(C)(=O)=O)NC(=O)C1(F)CCN(C(=O)C2CCN(C(=O)OC(C)(C)C)C=C2c2ccccc2Cl)CC1` (stereo partly drawn) [Compound 258, tert-butyl 5-(2-chlorophenyl)-4-(4-fluoro-4-(((R,Z)-4-(methylsulfonyl)but-3-en-2-yl)carbamoyl)piperidine-1-carbonyl)-3,4-dihydropyridine-1(2H)-carboxylate], the IC50 worked out at 883 nM.
The value for `C[C@H](/C=C\S(C)(=O)=O)NC(=O)C1(F)CCN(C(=O)[C@@H]2CCC3(CCC3)C[C@H]2c2ccccc2Cl)CC1` (racemic) [Compound 257, 1-((6*R,7*R)-6-(2-chlorophenyl)spiro[3.5]nonane-7-carbonyl)-4-fluoro-N-((R,Z)-4-(methylsulfonyl)but-3-en-2-yl)piperidine-4-carboxamide] was 420 nM; that for `C[C@H](/C=C\S(C)(=O)=O)NC(=O)C1(F)CCN(S(=O)(=O)c2ccc(Br)cc2-c2ccccc2C(F)(F)F)CC1` [Compound 54, (R,Z)-1-((5-bromo-2′-(trifluoromethyl)-[1,1′-biphenyl]-2-yl)sulfonyl)-4-fluoro-N-(4-(methylsulfonyl)but-3-en-2-yl)piperidine-4-carboxamide] was 860 nM; that for `C[C@H](/C=C\S(C)(=O)=O)NC(=O)C1(F)CCN(C(=O)[C@H]2COC(C)(C)C[C@@H]2c2ccccc2Cl)CC1` (racemic) [Compound 256, 1-((3*R,4*S)-4-(2-chlorophenyl)-6,6-dimethyltetrahydro-2H-pyran-3-carbonyl)-4-fluoro-N-((R,Z)-4-(methylsulfonyl)but-3-en-2-yl)piperidine-4-carboxamide] was 780 nM.
The value for `C[C@@H]1C[C@](F)(C(=O)NC/C=C\C(=O)N2CC(F)(F)C2)CCN1S(=O)(=O)c1cnc(C(F)(F)F)cc1-c1ccccc1Cl` [Compound 289, (2R,4S)-1-((4-(2-chlorophenyl)-6-(trifluoromethyl)pyridin-3-yl)sulfonyl)-N-((Z)-4-(3,3-difluoroazetidin-1-yl)-4-oxobut-2-en-1-yl)-4-fluoro-2-methylpiperidine-4-carboxamide] was 460 nM; that for `C[C@H](/C=C/C(=O)N1CC(F)(F)C1)NC(=O)[C@]1(F)CCN(S(=O)(=O)c2cnc(C(F)(F)F)cc2-c2ccccc2Cl)[C@H](C)C1` [Compound 215, (2R,4S)-1-((4-(2-chlorophenyl)-6-(trifluoromethyl)pyridin-3-yl)sulfonyl)-N-((R,E)-5-(3,3-difluoroazetidin-1-yl)-5-oxopent-3-en-2-yl)-4-fluoro-2-methylpiperidine-4-carboxamide] was 490 nM.
As for `CC(C)OC(=O)N1C[C@H](C(=O)N2CCC(F)(C(=O)N[C@H](C)/C=C\S(C)(=O)=O)CC2)[C@H](c2ccccc2Cl)C1` [Compound 159, isopropyl(3R,4R)-3-(2-chlorophenyl)-4-(4-fluoro-4-(((R,Z)-4-(methylsulfonyl)but-3-en-2-yl)carbamoyl)piperidine-1-carbonyl)pyrrolidine-1-carboxylate], the IC50 was 980 nM.
The value for `C=C(C#N)CNC(=O)C1(F)CCN(S(=O)(=O)c2ccc(Br)cc2-c2ccccc2Cl)CC1` [Compound 72, 1-((5-bromo-2′-chloro-[1,1′-biphenyl]-2-yl)sulfonyl)-N-(2-cyanoallyl)-4-fluoropiperidine-4-carboxamide] was 670 nM; that for `CS(=O)(=O)/C=C/CNC(=O)C1(F)CCN(S(=O)(=O)c2ccc(Br)cc2-c2ccccc2Cl)CC1` [Compound 64, (E)-1-((5-bromo-2′-chloro-[1,1′-biphenyl]-2-yl)sulfonyl)-4-fluoro-N-(3-(methylsulfonyl)allyl)piperidine-4-carboxamide] was 75 nM; that for `C[C@H](/C=C\S(C)(=O)=O)NC(=O)C1(F)CCN(S(=O)(=O)c2ccc(Br)cc2-c2cc(F)ccc2Cl)CC1` [Compound 48, (R,Z)-1-((5-bromo-2′-chloro-5′-fluoro-[1,1′-biphenyl]-2-yl)sulfonyl)-4-fluoro-N-(4-(methylsulfonyl)but-3-en-2-yl)piperidine-4-carboxamide] was 481 nM.
The value for `CC(C)OC(=O)N1C[C@H](c2ccccc2Cl)[C@H](C(=O)N2CCC(F)(C(=O)N[C@H](C)/C=C\S(C)(=O)=O)CC2)C1` [Compound 199, isopropyl (3S,4S)-3-(2-chlorophenyl)-4-(4-fluoro-4-(((R,Z)-4-(methylsulfonyl)but-3-en-2-yl)carbamoyl)piperidine-1-carbonyl) pyrrolidine-1-carboxylate] was 900 nM; that for `CC[C@H](/C=C/S(=O)(=O)C1CNC1)NC(=O)C1(F)CCN(S(=O)(=O)c2ccc(Br)cc2-c2ccccc2Cl)CC1` [Compound 77, (R,E)-N-(1-(azetidin-3-ylsulfonyl)pent-1-en-3-yl)-1-((5-bromo-2′-chloro-[1,1′-biphenyl]-2-yl)sulfonyl)-4-fluoropiperidine-4-carboxamide] was 128 nM.
As for `C[C@H](/C=C\S(C)(=O)=O)NC(=O)C1(F)CCN(S(=O)(=O)c2cnc(C(F)(F)F)cc2-c2ccc(F)cc2Cl)CC1` [Compound 211, (R,Z)-1-((4-(2-chloro-4-fluorophenyl)-6-(trifluoromethyl)pyridin-3-yl)sulfonyl)-4-fluoro-N-(4-(methylsulfonyl)but-3-en-2-yl)piperidine-4-carboxamide], the figure is 1000 nM; as for `C[C@@H]1C[C@](F)(C(=O)NC/C=C\C(=O)N2CC(F)(F)C2)CCN1S(=O)(=O)c1ccc(C(F)(F)F)cc1-c1ccccc1Cl` [Compound 290, (2R,4S)-1-((2′-chloro-5-(trifluoromethyl)-[1,1′-biphenyl]-2-yl)sulfonyl)-N-((Z)-4-(3,3-difluoroazetidin-1-yl)-4-oxobut-2-en-1-yl)-4-fluoro-2-methylpiperidine-4-carboxamide], 1000 nM; as for `C[C@H](/C=C\S(C)(=O)=O)NC(=O)[C@]1(F)CCN(S(=O)(=O)c2ccc(C(F)(F)F)cc2-c2ccccc2Cl)[C@H](C)C1` [Compound 142, (2R,4S)-1-((2′-chloro-5-(trifluoromethyl)-[1,1′-biphenyl]-2-yl)sulfonyl)-4-fluoro-2-methyl-N-((R,Z)-4-(methylsulfonyl)but-3-en-2-yl)piperidine-4-carboxamide], 120 nM.
Turning to `C[C@H](/C=C\S(C)(=O)=O)NC(=O)C1(F)CCN(S(=O)(=O)c2ccc(Br)cc2-c2cccc(Cl)c2)CC1` [Compound 55, (R,Z)-1-((5-bromo-3′-chloro-[1,1′-biphenyl]-2-yl)sulfonyl)-4-fluoro-N-(4-(methylsulfonyl)but-3-en-2-yl)piperidine-4-carboxamide], the IC50 amounted to 710 nM.
As for `C[C@H](/C=C\S(C)(=O)=O)NC(=O)C1(F)CCN(S(=O)(=O)c2cnc(C(F)(F)F)cc2-c2cccc(F)c2Cl)CC1` [Compound 209, (R,Z)-1-((4-(2-chloro-3-fluorophenyl)-6-(trifluoromethyl)pyridin-3-yl)sulfonyl)-4-fluoro-N-(4-(methylsulfonyl)but-3-en-2-yl)piperidine-4-carboxamide], the figure is 240 nM; as for `C[C@H](/C=C\S(C)(=O)=O)NC(=O)[C@]1(F)CCCN(S(=O)(=O)c2ccc(C(F)(F)F)cc2-c2ccccc2Cl)CC1` [Compound 311, (S)-1-((2′-chloro-5-(trifluoromethyl)-[1,1′-biphenyl]-2-yl)sulfonyl)-4-fluoro-N-((R,Z)-4-(methylsulfonyl)but-3-en-2-yl)azepane-4-carboxamide], 820 nM.
The value for `C[C@@H]1C[C@](F)(C(=O)NC/C=C\C(=O)N2CC(F)(F)C2)CCN1S(=O)(=O)c1ccc(Br)cc1-c1ccccc1Cl` [Compound 291, (2R,4S)-1-((5-bromo-2′-chloro-[1,1′-biphenyl]-2-yl)sulfonyl)-N-((Z)-4-(3,3-difluoroazetidin-1-yl)-4-oxobut-2-en-1-yl)-4-fluoro-2-methylpiperidine-4-carboxamide] was 320 nM; that for `COCCc1cccc(-c2cc(Cl)ccc2S(=O)(=O)N2CCC(F)(C(=O)N[C@@H](C)/C=C\S(C)(=O)=O)CC2)c1` [Compound 125, (S,Z)-1-((5-chloro-3′-(2-methoxyethyl)-[1,1′-biphenyl]-2-yl)sulfonyl)-4-fluoro-N-(4-(methylsulfonyl)but-3-en-2-yl)piperidine-4-carboxamide] was 610 nM.

For the origin of these results see patent publication US20250026721A1, “COMPOUNDS AND METHODS FOR MODULATING RAS-PI3K” (Vividion Therapeutics, Inc., priority 2023, published 2025).
